{
  "source": "patent US8299125B2",
  "about": "“Water-soluble triterpenephenol compounds having antitumor activity and the preparation thereof” (Shanghai Huatuo Medical Science Co., Ltd., priority 2007, dated 2012)",
  "key": {"[1]": {"assay": "Stability assay of compound A during the preparation of the injection (HPLC peak area)", "format": "physicochemical", "details": "for peak area: 210 nm", "experimental": "(§1) Experimental conditions: the chromatography column was DIKMA C18 column (5μ, 250×4.6 mm); the detector was Agilent 1100 DAD detector; the detection wavelength was 210 nm; the liquid phase was acetonitrile-0.02M KH2PO4 (which contains 1‰ of tetrabutylammonium hydroxide, and the pH was adjusted to 7.35 with triethylamine) (35:65); the flow speed was 1 ml/min; and sample amount was 20 μl.\nSample: the solutions in each step of the preparation of the injection of compound A in example 6\nExperimental data: the peak area of the solution before filtering with micro-pore filter film was 1084.4, the peak area after filtering was 1078.2, and the peak area after the moist heat sterilization was 1072.9."}, "[2]": {"test_system": "human prostate cancer cell PC-3 transplanted into nude mice", "assay": "Therapeutic activity against human prostate cancer cell PC-3 transplanted into nude mice", "format": "in vivo, BALB/Ca nude mice", "details": "for TV d24 / T/C (%) / RTV / TV d0: dl/3.5 w, i.p; for TV d24: 24th day; for T/C (%): relative tumor proliferation rate; for RTV: relative tumor volume Vt/V0; for TV d0: tumor volume at start of administration", "experimental": "The therapeutic activity experiment of compound A against human prostate cancer cell PC-3 transplanted into nude mice was conducted by SHANGHAI INSTITUTE OF MATERIA MEDICA, CHINESE ACADEMY OF SCIENCES, under assignment by SHANGHAI HUATUO MEDICAL SCIENCE CO., LTD.\nTested Compound: Compound A.\nPositive control medicine: mitomycin (MMC), produced by Kyowa Hakko kogyo Co Ltd. (batch no: 468AEF, 2 mg/bottle), was diluted with physiological saline when used.\nAnimal and transplanted tumor: BALB/Ca nude mice, female, 45˜50 days old, weight 20±1 g. The transplanted tumor of human prostate cancer cell PC-3 in nude mice was established by inoculating the nude mice with PC-3 cell line subcutaneously.\nTV (mm^3) is the tumor volume, and the calculation equation is: TV=½×a×b^2, wherein a and b represent length and width respectively. d0 is the tumor volume measured as medicine is administered in divided cages, and d24 is the tumor volume on the 24th day of the experiment. RTV is the relative tumor volume, and the calculation equation is RTV=Vt/V0, wherein V0 is the tumor volume measured as medicine is administered in divided cages (i.e. d0), Vt is the tumor volume measured every time. The evaluation index of the antitumor activity is the relative tumor proliferation rate T/C (%) and the calculation equation is as follows: T/C(%)=(TRTV/CRTV)×100\nTRTV: RTV of the therapeutic group; CRTV: RTV of the negative control group.\nEvaluation standard of therapeutic effect: T/C (%)>60% is ineffective, T/C (%)≦60 and with a statistic result of p<0.05 represents effective."}, "[3]": {"assay": "Stability assay of compound A at meta-acidic or meta-alkalescence condition (HPLC peak area)", "format": "physicochemical", "details": "2 hours", "experimental": "as §1, with “mm); The” for “mm); the”, “was Waters 3487” for “was Agilent 1100 DAD”, “1‰” for “1‰ of”, “(35:65); and” for “(35:65);”, “1 ml/min.” for “1 ml/min; and sample amount was 20 μl.”\nExperimental method: the compound A was formulated into a solution of about 5 mg/ml with distilled water. 0.1 ml of the solution was added into the following solutions respectively: a) 1 ml of HCl diluted solution with a pH of 2; b) 1 ml of distilled water; c) 1 ml of sodium carbonate diluted solution with a pH of 10. After left standing at room temperature for 2 hours, 0.1 ml of each the above three kinds of solution were added into 1 ml of liquid phase solution, respectively, and 20 μl was sampled and injected into the chromatograph. The peak areas were then determined and calculated."}},
  "data": [
    {"compound": "Cc1c(O)c(O)cc2c1C(S(=O)(=O)[O-])C=C1[C@@]2(C)CC[C@@]2(C)[C@@H]3C[C@](C)(C(=O)O)CC[C@]3(C)CC[C@]12C.[Na+]", "note": "(some centres unmarked) [Compound A]", "values": [
      {"measurement": "stability during the injection preparation", "setting": "[1]", "result": "good"},
      {"measurement": "peak area", "setting": "[1]; after filtering", "result": 1078.2},
      {"measurement": "peak area", "setting": "[1]; after the moist heat sterilization (116° C., 30 min)", "result": 1072.9},
      {"measurement": "peak area", "setting": "[1]; solution before filtering with micro-pore filter film", "result": 1084.4},
      {"measurement": "TV d24", "setting": "[2]; 3 mg/kg", "result": "501 ± 133", "unit": "mm^3"},
      {"measurement": "T/C (%)", "setting": "[2]; 3 mg/kg", "result": 40.2, "unit": "%"},
      {"measurement": "RTV", "setting": "[2]; 3 mg/kg", "result": "3.8 ± 1.1"},
      {"measurement": "TV d0", "setting": "[2]; 3 mg/kg", "result": "135 ± 16", "unit": "mm^3"},
      {"measurement": "inhibition of the growth of human prostate cancer cell PC-3 transplanted into nude mice", "setting": "[2]; mouse, in vivo", "result": "marked inhibition effects"},
      {"measurement": "Percentage (based on the peak area in distilled water taken as 100%)", "setting": "[3]; Distilled water (reference), room temperature", "result": 100, "unit": "%"},
      {"measurement": "peak area", "setting": "[3]; Distilled water, room temperature", "result": 1206926},
      {"measurement": "stability at both meta-acidic condition and meta-alkalescence condition", "setting": "[3]; pH 2 and pH 10, room temperature", "result": "good stability"},
      {"measurement": "peak area", "setting": "[3]; pH = 2 (HCl diluted solution), room temperature", "result": 1247385},
      {"measurement": "Percentage (based on the peak area in distilled water taken as 100%)", "setting": "[3]; pH = 2, room temperature", "result": 103.4, "unit": "%"},
      {"measurement": "peak area", "setting": "[3]; pH = 10 (sodium carbonate diluted solution), room temperature", "result": 1232216},
      {"measurement": "Percentage (based on the peak area in distilled water taken as 100%)", "setting": "[3]; pH = 10, room temperature", "result": 102.1, "unit": "%"}
    ]},
    {"compound": "CO[C@@]12[C@H](COC(N)=O)C3=C(C(=O)C(C)=C(N)C3=O)N1C[C@@H]1N[C@@H]12", "note": "[mitomycin, reference compound]", "values": [
      {"measurement": "TV d24", "setting": "[2]; 5 mg/kg", "result": "400 ± 224", "unit": "mm^3"},
      {"measurement": "T/C (%)", "setting": "[2]; 5 mg/kg", "result": 33.7, "unit": "%"},
      {"measurement": "RTV", "setting": "[2]; 5 mg/kg", "result": "3.1 ± 1.8"},
      {"measurement": "TV d0", "setting": "[2]; 5 mg/kg", "result": "135 ± 42", "unit": "mm^3"}
    ]}
  ]
}
